Reference: patent US11452713B2, “Chemotherapeutic methods for treating low-proliferative disseminated tumor cells” (University of Florida Research Foundation, Incorporated, priority 2016, dated 2022)
Entries after “also recorded” stand apart in the source; their conditions may differ.

Experiments:
BM DTCs [1] = assay: BM DTC count and lpDTC fraction in ErbB2-induced mouse breast cancer model after single-agent treatment; assay type: in vivo; details: for BM DTC count: FIG. 8A, p<0.05; for fraction of BM lpDTCs (TWIST1+; p-p38+; BrdU- DTCs over total BM DTCs): FIG. 8B
Description: FIGS. 8A-8B show the dormant TWIST1^+; p-p38; BrdU-DTCs resistance to cytotoxic drugs in ErbB2-induced mouse breast cancer model.
Of these TWIST1-positive BM DTCs, nearly 80% (23/29) expressed activated p38 (p-p38) and 70% (20/29) were also growth arrested as measured by a lack of BrdU incorporation (FIG. 7C-D). In contrast, of the TWIST1-negative DTCs, 94% (67/71) lacked activated p38 and 77% (55/71) were also actively proliferating. Therefore TWIST1-positive; p-p38-positive; BrDU-negative cells represent the fraction of true lpDTCs in these models. To confirm that these BM lpDTCs were resistant to cytotoxic agents and that p38 plays a critical role in their growth arrest, these mice were treated with either SB203085 (10 μmol/kg IP BID×7 days) or the cytotoxic drug paclitaxel (Taxol, 10 mg/kg IP once) and measured the number of all BM DTCs and the fraction of lpDTCs (ratio of TWIST1+; p-p38+; BrdU-DTCs over total BM DTCs). […] ErbB2- or PyMT-induced breast tumor mice were untreated or treated with either Taxol alone or a combination of SB203085 plus Taxol with SB203085 starting 72 hrs prior to and ending 72 hrs after each dose of Taxol (FIG. 9). Three 21-day cycles of chemotherapy were given. Total BM DTCs were determined prior to and 1 week after treatment ended.

BM DTCs [2] = assay: p38 inhibitor plus Taxol in PyMT-induced breast tumor mice: total BM DTCs and overall survival; assay type: in vivo, mouse; details: MMTV-PyMT mice; SB203085 72 hrs prior to until 72 hrs after each Taxol dose, 3 cycles; vs Taxol alone and untreated
Protocol: FIGS. 9A-9B show the p38 inhibition increase the DTCs' sensitivity to cytotoxic chemotherapy. DTCs-bearing PyMT-induced breast tumor mice were either untreated or treated with Taxol alone (10 mg/kg) or with SB203085 (10 μg/kg) followed by Taxol. Taxol was given IP every 3 weeks for 3 cycles. SB203085 was given IP BID starting 72 hours prior to Taxol and continuing until 72 hours after Taxol infusion. Ten mice were included in each reference group. FIGS. 9A and B show the overall survival (A) and total BM DTCs (B) before and after chemo were determined.
Of these TWIST1-positive BM DTCs, nearly 80% (23/29) expressed activated p38 (p-p38) and 70% (20/29) were also growth arrested as measured by a lack of BrdU incorporation (FIG. 7C-D). In contrast, of the TWIST1-negative DTCs, 94% (67/71) lacked activated p38 and 77% (55/71) were also actively proliferating. […] To confirm that these BM lpDTCs were resistant to cytotoxic agents and that p38 plays a critical role in their growth arrest, these mice were treated with either SB203085 (10 μmol/kg IP BID×7 days) or the cytotoxic drug paclitaxel (Taxol, 10 mg/kg IP once) and measured the number of all BM DTCs and the fraction of lpDTCs (ratio of TWIST1+; p-p38+; BrdU-DTCs over total BM DTCs). […] Total BM DTCs were determined prior to and 1 week after treatment ended. […]

[3] = system: TWIST1-overexpressing cells; assay: Reversal of TWIST1-dependent growth arrest by p38 inhibition; assay type: cell-based; details: FIG. 4A
Description: TWIST1 was overexpressed so as to achieve maximal TWIST1 effect, thereby avoiding the confounding problem of added TGFβ1. TWIST1 overexpression alone generated vigorous TGFβ1-independent EMT and led to 2-3 fold lower ERK:p38 signaling ratio (i.e. high p38 activity) compared to the empty vector (FIG. 3D).
(§1) SNAIL1 represses TWIST1 during EMT initiation. TWIST1 maintains EMT by creating a low ERK:p38 signaling ratio (high p38 activity). Thus high SNAIL1 levels in primary tumors would induce EMT while high TWIST1 levels would maintain EMT in metastatic cells and possibly contribute to lpDTCs in metastatic sites (FIG. 1).

[4] = cited from earlier work
TWIST1-positive cells = assay: Sensitivity of TWIST1-positive cells to Taxol with or without SB203580 pretreatment; assay type: cell-based
Description: as §1

SMILES	increase of number of total BM DTCs compared to non-treated animals (BM DTCs [1]; 10 μmol/kg IP BID x 7 days) [fold]	BM DTC count (BM DTCs [1])	fraction of BM lpDTCs (TWIST1+; p-p38+; BrdU- DTCs over total BM DTCs) (BM DTCs [1]; listed as SB203085)	overall survival (BM DTCs [2])	total BM DTCs (BM DTCs [2])	TWIST1-dependent growth arrest [3]	tolerability ([4]; 4 dose levels 0.5, 3, 6 and 10 mg PO qday)	most common side effect: skin rash ([4]; phase 2 trial in emphysema) [%]	severe adverse events ([4]; phase 2 trial in emphysema)	decrease of total DTC number (BM DTCs [1]; 10 mg/kg IP once) [fold]	fraction of BM lpDTCs (TWIST1+; p-p38+; BrdU- DTCs over total BM DTCs) (BM DTCs [1])	IC50 (TWIST1-positive cells; non-pretreated, FIG. 4B) [nM]	IC50 (TWIST1-positive cells; pretreatment with SB203580, FIG. 4B) [nM]
C[S+]([O-])c1ccc(-c2nc(-c3ccc(F)cc3)c(-c3ccncc3)[nH]2)cc1 (centres unmarked) [SB203580, 4-(4-Fluorophenyl)-2-(4-methylsulfinylphenyl)-5-(4-pyridyl)-1H-imidazole]	> 4	increases	decreased	increased overall survival	significantly reduced total BM DTCs	reversed TWIST1-dependent growth arrest in a dose dependent manner							
CNC(=O)c1ccc(C)c(-n2c(C)cc(OCc3ccc(F)cc3F)c(Br)c2=O)c1 [PH797804, 3-(4-(2,4-difluorobenzyloxy)-3-bromo-6-methyl-2-oxopyridin-1(2H)-yl)-N,4-dimethylbenzamide]							well tolerated	~1	No significant severe adverse events				
CC(=O)O[C@H]1C(=O)[C@@]2(C)[C@H]([C@H](OC(=O)c3ccccc3)[C@]3(O)C[C@H](OC(=O)[C@H](O)[C@@H](NC(=O)c4ccccc4)c4ccccc4)C(C)=C1C3(C)C)[C@]1(OC(C)=O)CO[C@@H]1C[C@@H]2O [Taxol, paclitaxel]		decreases								~2.5	enriches; also recorded: significantly increased	> 40	6.1
